Results published in ChEMBL document CHEMBL1158870, “Antitumor agents. 180. Chemical Studies and cytotoxic evaluation of cumingianosides and cumindysoside A, antileukemic triterpene glucosides with a 14,18-cycloapotirucallane skeleton” (1997).

Columns and labels:
CCRF-CEM = experiment: Cytotoxicity against human CCRF-CEM cells by SRB assay; assay type: functional
[1] = Cytotoxicity against human HL60(TB) cells by SRB assay; assay type: functional, HL-60(TB); details: HL-60
K562 = experiment: Cytotoxicity against human K562 cells by SRB assay; assay type: functional
MOLT-4 = experiment: Cytotoxicity against human MOLT4 cells by SRB assay; assay type: functional
RPMI-8226 = experiment: Cytotoxicity against human RPMI8226 cells by SRB assay; assay type: functional
SR = experiment: Cytotoxicity against human SR cells by SRB assay; assay type: functional
A549 = experiment: Cytotoxicity against human A549 cells by SRB assay; assay type: functional
EKVX = experiment: Cytotoxicity against human EKVX cells by SRB assay; assay type: functional
HOP-62 = experiment: Cytotoxicity against human HOP62 cells by SRB assay; assay type: functional
HOP-92 = experiment: Cytotoxicity against human HOP92 cells by SRB assay; assay type: functional
NCI-H226 = experiment: Cytotoxicity against human NCI-H226 cells by SRB assay; assay type: functional
NCI-H23 = experiment: Cytotoxicity against human NCI-H23 cells by SRB assay; assay type: functional
NCI-H322M = experiment: Cytotoxicity against human NCI-H322M cells by SRB assay; assay type: functional
NCI-H460 = experiment: Cytotoxicity against human NCI-H460 cells by SRB assay; assay type: functional
NCI-H522 = experiment: Cytotoxicity against human NCI-H522 cells by SRB assay; assay type: functional
COLO 205 = experiment: Cytotoxicity against human COLO205 cells by SRB assay; assay type: functional
HCC 2998 = experiment: Cytotoxicity against human HCC2998 cells by SRB assay; assay type: functional
HCT-116 = experiment: Cytotoxicity against human HCT116 cells by SRB assay; assay type: functional
HCT-15 = experiment: Cytotoxicity against human HCT15 cells by SRB assay; assay type: functional
HT-29 = experiment: Cytotoxicity against human HT29 cells by SRB assay; assay type: functional
KM12 = experiment: Cytotoxicity against human KM12 cells by SRB assay; assay type: functional
SW-620 = experiment: Cytotoxicity against human SW620 cells by SRB assay; assay type: functional
SF-268 = experiment: Cytotoxicity against human SF268 cells by SRB assay; assay type: functional
SF-295 = experiment: Cytotoxicity against human SF295 cells by SRB assay; assay type: functional
SNB-19 = experiment: Cytotoxicity against human SNB19 cells by SRB assay; assay type: functional
SNB-75 = experiment: Cytotoxicity against human SNB75 cells by SRB assay; assay type: functional
U-251 = experiment: Cytotoxicity against human U251 cells by SRB assay; assay type: functional
LOX IMVI = experiment: Cytotoxicity against human LOXIMVI cells by SRB assay; assay type: functional
Malme-3M = experiment: Cytotoxicity against human MALME-3M cells by SRB assay; assay type: functional
M14 = experiment: Cytotoxicity against human M14 cells by SRB assay; assay type: functional
SK-MEL-2 = experiment: Cytotoxicity against human SK-MEL-2 cells by SRB assay; assay type: functional
SK-MEL-28 = experiment: Cytotoxicity against human SK-MEL-28 cells by SRB assay; assay type: functional
SK-MEL-5 = experiment: Cytotoxicity against human SK-MEL-5 cells by SRB assay; assay type: functional
UACC-257 = experiment: Cytotoxicity against human UACC257 cells by SRB assay; assay type: functional
UACC-62 = experiment: Cytotoxicity against human UACC62 cells by SRB assay; assay type: functional
IGROV-1 = experiment: Cytotoxicity against human IGROV1 cells by SRB assay; assay type: functional
OVCAR-3 = experiment: Cytotoxicity against human OVCAR-3 cells by SRB assay; assay type: functional
OVCAR-4 = experiment: Cytotoxicity against human OVCAR4 cells by SRB assay; assay type: functional
OVCAR-5 = experiment: Cytotoxicity against human OVCAR5 cells by SRB assay; assay type: functional
OVCAR-8 = experiment: Cytotoxicity against human OVCAR8 cells by SRB assay; assay type: functional
SK-OV-3 = experiment: Cytotoxicity against human SKOV3 cells by SRB assay; assay type: functional
[2] = Cytotoxicity against human 786-O cells by SRB assay; assay type: functional; details: 786-0
A498 = experiment: Cytotoxicity against human A498 cells by SRB assay; assay type: functional
ACHN = experiment: Cytotoxicity against human ACHN cells by SRB assay; assay type: functional
CAKI-1 = experiment: Cytotoxicity against human Caki1 cells by SRB assay; assay type: functional
RXF 393 = experiment: Cytotoxicity against human RXF393 cells by SRB assay; assay type: functional
SN12C = experiment: Cytotoxicity against human SN12C cells by SRB assay; assay type: functional
UO-31 = experiment: Cytotoxicity against human UO31 cells by SRB assay; assay type: functional
PC-3 = experiment: Cytotoxicity against human PC3 cells by SRB assay; assay type: functional
DU-145 = experiment: Cytotoxicity against human DU145 cells by SRB assay; assay type: functional
MCF7 = experiment: Cytotoxicity against human MCF7 cells by SRB assay; assay type: functional
[3] = Cytotoxicity against human MCF7/ADR cells by SRB assay; assay type: functional; details: NCI/ADR-RES
MDA-MB-231 = experiment: Cytotoxicity against human MDA-MB-231 cells by SRB assay; assay type: functional
[4] = Cytotoxicity against human Hs 578T cells by SRB assay; assay type: functional
MDA-MB-435 = experiment: Cytotoxicity against human MDA-MB-435 cells by SRB assay; assay type: functional
MDA-N = experiment: Cytotoxicity against human MDA-N cells by SRB assay; assay type: functional
BT-549 = experiment: Cytotoxicity against human BT549 cells by SRB assay; assay type: functional
T47D = experiment: Cytotoxicity against human T47D cells by SRB assay; assay type: functional
Leukemia cell = experiment: Cytotoxicity against human Leukemia cells by SRB assay; assay type: functional
NSCLC = experiment: Cytotoxicity against human NSCLC cells by SRB assay; assay type: functional
[5] = Cytotoxicity against human Colon cancer cells by SRB assay; assay type: functional; details: Cancer cell lines
[6] = Cytotoxicity against human CNS cancer cells by SRB assay; assay type: functional; details: Cancer cell lines
[7] = Cytotoxicity against human melanoma cells by SRB assay; assay type: functional; details: Melanoma cell
[8] = Cytotoxicity against human ovarian cancer cells by SRB assay; assay type: functional; details: Cancer cell lines
[9] = Cytotoxicity against human prostate cancer cells by SRB assay; assay type: functional; details: Cancer cell lines
[10] = Cytotoxicity against human breast cancer cells by SRB assay; assay type: functional; details: Cancer cell lines
[11] = Cytotoxicity against human renal cancer cells by SRB assay; assay type: functional; details: Cancer cell lines

Q: For `CC(=O)OC[C@H]1O[C@@H](O[C@@H]2C[C@H]3C(C)(C)[C@H](OC(C)=O)CC[C@]3(C)[C@H]3CC[C@@H]4[C@]5(CC[C@@]4(C)[C@@]32C)O[C@@H]([C@H](O)C(C)(C)O)C[C@@H]5C)[C@H](O)[C@@H](O)[C@@H]1O`, which GI50 (CCRF-CEM) is on record?
A: 3.16 µM

Q: And the GI50 [1]?
A: 2950 nM

Q: What about the GI50 (K562) of the same molecule?
A: 4.47 µM

Q: What about the GI50 (MOLT-4) of the same molecule?
A: 3.16 µM

Q: What about the GI50 (RPMI-8226) of the same molecule?
A: 3.39 µM

Q: What about the GI50 (SR) of the same molecule?
A: 3.09 µM

Q: And the GI50 (A549)?
A: 5.13 µM

Q: And the GI50 (EKVX)?
A: 9.55 µM

Q: And the GI50 (HOP-62)?
A: 14.1 µM

Q: And the GI50 (HOP-92)?
A: 10 µM

Q: And the GI50 (NCI-H226)?
A: 10.7 µM

Q: What about the GI50 (NCI-H23) of the same molecule?
A: 12.9 µM

Q: What about the GI50 (NCI-H322M) of the same molecule?
A: 1700 nM

Q: What about the GI50 (NCI-H460) of the same molecule?
A: 6.61 µM

Q: What about the GI50 (NCI-H522) of the same molecule?
A: 7.08 µM

Q: And the GI50 (COLO 205)?
A: 4.07 µM

Q: What about the TGI (COLO 205) of the same molecule?
A: 14.3 µM

Q: And the GI50 (HCC 2998)?
A: 3.63 µM

Q: And the TGI (HCC 2998)?
A: 15.9 µM

Q: And the GI50 (HCT-116)?
A: 3.8 µM

Q: What about the TGI (HCT-116) of the same molecule?
A: 15.1 µM

Q: And the GI50 (HCT-15)?
A: 2190 nM

Q: And the TGI (HCT-15)?
A: 5.9 µM

Q: What about the GI50 (HT-29) of the same molecule?
A: 1820 nM

Q: And the TGI (HT-29)?
A: 4.3 µM

Q: And the GI50 (KM12)?
A: 2000 nM

Q: What about the TGI (KM12) of the same molecule?
A: 7.7 µM

Q: What about the GI50 (SW-620) of the same molecule?
A: 10.5 µM

Q: And the TGI (SW-620)?
A: 22.9 µM

Q: And the GI50 (SF-268)?
A: 9.33 µM

Q: What about the GI50 (SF-295) of the same molecule?
A: 6.46 µM

Q: And the GI50 (SNB-19)?
A: 12.6 µM

Q: And the GI50 (SNB-75)?
A: 5.13 µM

Q: What about the GI50 (U-251) of the same molecule?
A: 10.7 µM

Q: What about the GI50 (LOX IMVI) of the same molecule?
A: 3.63 µM

Q: What about the GI50 (Malme-3M) of the same molecule?
A: 10.2 µM

Q: And the GI50 (M14)?
A: 5.01 µM

Q: What about the GI50 (SK-MEL-2) of the same molecule?
A: 6.03 µM

Q: What about the GI50 (SK-MEL-28) of the same molecule?
A: 10.2 µM

Q: What about the GI50 (SK-MEL-5) of the same molecule?
A: 10.7 µM

Q: What about the GI50 (UACC-257) of the same molecule?
A: 11.5 µM

Q: And the GI50 (UACC-62)?
A: 6.31 µM

Q: What about the GI50 (IGROV-1) of the same molecule?
A: 9.55 µM

Q: And the GI50 (OVCAR-3)?
A: 7.08 µM

Q: What about the GI50 (OVCAR-4) of the same molecule?
A: 3.39 µM

Q: And the GI50 (OVCAR-5)?
A: 5.13 µM

Q: What about the GI50 (OVCAR-8) of the same molecule?
A: 9.33 µM

Q: What about the GI50 (SK-OV-3) of the same molecule?
A: 7.94 µM

Q: What about the GI50 [2] of the same molecule?
A: 8.71 µM

Q: What about the GI50 (A498) of the same molecule?
A: 11.7 µM

Q: And the GI50 (ACHN)?
A: 9.33 µM

Q: And the GI50 (CAKI-1)?
A: 25.7 µM

Q: And the GI50 (RXF 393)?
A: 4.07 µM

Q: And the GI50 (SN12C)?
A: 11.2 µM

Q: And the GI50 (UO-31)?
A: 7.76 µM

Q: And the GI50 (PC-3)?
A: 3.8 µM

Q: And the GI50 (DU-145)?
A: 10.7 µM

Q: And the GI50 (MCF7)?
A: 1070 nM

Q: And the GI50 [3]?
A: 16.2 µM

Q: And the GI50 (MDA-MB-231)?
A: 10.2 µM

Q: And the GI50 [4]?
A: 9.33 µM

Q: And the GI50 (MDA-MB-435)?
A: 8.32 µM

Q: What about the GI50 (MDA-N) of the same molecule?
A: 7.08 µM

Q: And the GI50 (BT-549)?
A: 12 µM

Q: What about the GI50 (T47D) of the same molecule?
A: 5.62 µM

Q: What about the TGI (Leukemia cell) of the same molecule?
A: 17.3 µM

Q: What about the TGI (NSCLC) of the same molecule?
A: 21.8 µM

Q: What about the TGI [5] of the same molecule?
A: 12.3 µM

Q: What about the TGI [6] of the same molecule?
A: 22.2 µM

Q: And the TGI [7]?
A: 20.7 µM

Q: What about the TGI [8] of the same molecule?
A: 20.1 µM

Q: What about the TGI [9] of the same molecule?
A: 18.5 µM

Q: What about the TGI [10] of the same molecule?
A: 21.3 µM

Q: What about the TGI [11] of the same molecule?
A: 20.5 µM
